The nature of series [1]: Pharmacokinetics of compound 1 in mice (background). To be noted: mouse, in vivo.
Series [2] concerns human stem cell-derived motor neurons derived from a healthy patient. As to the kind of experiment: CPA survival assay, wild-type human stem cell-derived motor neurons. The note with it: CPA 33 μM; at 1.2 μM (PF-6260933), 2.4 μM (GNE-495), 0.6 μM (URMC-099).
A short description of series [3]: Spectrophotometric solubility assay of vehicle formulations (540 nM). In kind it is physicochemical. As to the method:
These mixtures were then read on a spectrophotometer at […] to assess optical density, a measure of the transparency of the mixture and an indicator of the formation of precipitates. […] At higher concentrations, these precipitates were visible by eye.
Compounds diluted in different vehicle formulations were added to clear cell culture media at ratios consistent with our in vivo dosing scheme.

Series [4] concerns human ALS stem cell-derived motor neurons. As to the kind of experiment: Rescue of CPA toxicity, 6-point dose-response assay (FIG. 2B). It is filed as cell-based.
In a further series the target is HGK/MAP4K4 (Homo sapiens, UniProt O95819). To be noted: cited from earlier work.
Series [5] relates to mouse ES-derived motor neurons. Nature of the series: Western blot of JNK pathway activation in CPA-treated motor neurons. In kind it is cell-based. The note with it: 4 h. Here is the method:
Mouse ES-derived motor neurons were treated with CPA, CPA+ compound 1, or vehicle control (DMSO) for four hours. Cells were then lysed to extract proteins.
Samples were harvested after 4 h of treatment. N=samples from 3 separate motor neuron differentiations treated and lysed separately. Cells from each differentiation were split into three samples, one for each treatment condition. All samples were run concurrently on the same blot. All band intensities were normalized to GAPDH to control for loading, then DMSO and CPA+Compound 1 values were normalized to CPA values for each n. One-way ANOVAs were used to evaluate the overall effects of treatment on JNK phosphorylation (P=0.0009; F=28.33; R2=0.9042) and c-Jun phosphorylation (P<0.0001; F=101.9; R2=0.9714).
Whole mouse embryoid bodies at day 6 of differentiation were treated with CPA (10 μM) and test compounds for 4 h, then lysed and sonicated in ice-cold buffer containing HEPES (50 mM), NaCl (100 mM), Triton-X (1%), SDS (0.1%), DTT (1 mM), EDTA (1 mM), plus protease and phosphatase inhibitor cocktail tablets (Roche). Total protein content was analyzed using a BCA kit according to the manufacturer's instructions (Pierce). […] Samples were run for 4 h at 100V at 4°, then transferred to nitrocellulose membranes using an iBlot dry transfer system (Thermo Fisher). Membranes were blocked with tris-buffered saline (TBS) containing 5% BSA (Cell Signaling Technologies), then incubated with primary antibodies in a buffer containing 5% BSA and 0.1% Tween in TBS overnight at 4°. Primary antibodies against phospho-c-Jun (serine 63; Cell Signaling Technologies #9261) were added at 1:500; primary antibodies against phospho-JNK (thr183/tyr185; Cell Signaling Technologies #4688) were added at 1:1000; primary antibodies against GAPDH (Santa Cruz Biotechnologies) were added at 1:1000 as a loading control. Following washes in TBS containing 0.1% Tween, membranes were incubated in goat anti-rabbit HRP-conjugated secondary antibody solutions (1:10,000; Santa Cruz Biotechnologies) for 1 hr. Membranes were then washed again in TBS containing 0.1% Tween, then incubated in Femto ECL (Pierce) for 5 min. Chemiluminescence was visualized using a LiCor Odyssey. Phospho-c-Jun and phopsho-JNK band intensities were normalized to GAPDH.

The test system of a further series is phospho-cjun. Nature of the series: Phospho-cjun in olfactory bulbs after treatment in vivo (western blot). Also noted: species or system mouse. The note with it: 10 mg/kg oral gavage. Here is the method:
Compounds at 10 mg/kg were delivered intraperitoneally (IP), orally, or sub-cutaneously (SC). Animals were sacrificed 1 h after treatment. Their olfactory bulbs were dissected and lysed for western blot analysis. Phospho-cjun expression was normalized to the housekeeping protein GAPDH.
We therefore selected phospho-cjun as a marker of target engagement for further in vivo studies. C-jun is highly expressed throughout the murine central nervous system, especially in the olfactory bulbs. […] Animals were then sacrificed after 1 h, and their olfactory bulbs were sub-dissected and lysed for further western blot analysis. Samples were probed with an antibody specific to phosphorylated c-jun (at serine 63; cell signaling) and normalized to the housekeeping gene GAPDH.
Background: A western blot detects proteins with antibodies after separation by electrophoresis.

The nature of series [6]: Safety of long-term administration in drinking water. It is filed as in vivo. The note with it: 10 mg/kg, 60 days from P30. The source says:
[…]. Treatment began at P30 and continued for 60 days.

The test system of series [7] is panel of 371 human kinases. Nature of the series: Radiolabeled ATP kinase assay, panel of 371 kinases (Table S6). In kind it is biochemical. The note with it: 0.1 μM, 10 μM ATP. The text has this:
; FIG. 38C). […]. Further targeted analyses, such as genetic knock-down or knock-out, may be warranted to parse the role of these additional kinases in our model of neurodegeneration.

Series [8] concerns targets of cyclin-dependent kinases and mitogen activated kinases. Nature of the series: Target engagement in CNS, per os 7 days (phosphoprotein blot of brain). In kind it is in vivo, mouse. To be noted: 5 or 10 mg/kg. Here is the method:
To explore the target engagement in CNS for compound 12k, compounds 1 and 12k were administered continuously per os to wild-type mice (n=3 per treatment). […] Fresh brain samples were harvested after 7 days of treatment. Reduced brain samples were separated by SDS-PAGE and probed with an antibody that recognizes phosphoproteins that have been phosphorylated at motifs corresponding to the targets of cyclin-dependent kinases and mitogen activated kinases.

By half-life is commonly meant the time needed for the level to fall by half in the phase considered. Read a low half-life as fast loss.

SMILES strings stand for the structures. Entries after “also recorded” stand apart in the source; their conditions may differ.

Chain of HGK/MAP4K4 (O95819 whole entry, species assumed): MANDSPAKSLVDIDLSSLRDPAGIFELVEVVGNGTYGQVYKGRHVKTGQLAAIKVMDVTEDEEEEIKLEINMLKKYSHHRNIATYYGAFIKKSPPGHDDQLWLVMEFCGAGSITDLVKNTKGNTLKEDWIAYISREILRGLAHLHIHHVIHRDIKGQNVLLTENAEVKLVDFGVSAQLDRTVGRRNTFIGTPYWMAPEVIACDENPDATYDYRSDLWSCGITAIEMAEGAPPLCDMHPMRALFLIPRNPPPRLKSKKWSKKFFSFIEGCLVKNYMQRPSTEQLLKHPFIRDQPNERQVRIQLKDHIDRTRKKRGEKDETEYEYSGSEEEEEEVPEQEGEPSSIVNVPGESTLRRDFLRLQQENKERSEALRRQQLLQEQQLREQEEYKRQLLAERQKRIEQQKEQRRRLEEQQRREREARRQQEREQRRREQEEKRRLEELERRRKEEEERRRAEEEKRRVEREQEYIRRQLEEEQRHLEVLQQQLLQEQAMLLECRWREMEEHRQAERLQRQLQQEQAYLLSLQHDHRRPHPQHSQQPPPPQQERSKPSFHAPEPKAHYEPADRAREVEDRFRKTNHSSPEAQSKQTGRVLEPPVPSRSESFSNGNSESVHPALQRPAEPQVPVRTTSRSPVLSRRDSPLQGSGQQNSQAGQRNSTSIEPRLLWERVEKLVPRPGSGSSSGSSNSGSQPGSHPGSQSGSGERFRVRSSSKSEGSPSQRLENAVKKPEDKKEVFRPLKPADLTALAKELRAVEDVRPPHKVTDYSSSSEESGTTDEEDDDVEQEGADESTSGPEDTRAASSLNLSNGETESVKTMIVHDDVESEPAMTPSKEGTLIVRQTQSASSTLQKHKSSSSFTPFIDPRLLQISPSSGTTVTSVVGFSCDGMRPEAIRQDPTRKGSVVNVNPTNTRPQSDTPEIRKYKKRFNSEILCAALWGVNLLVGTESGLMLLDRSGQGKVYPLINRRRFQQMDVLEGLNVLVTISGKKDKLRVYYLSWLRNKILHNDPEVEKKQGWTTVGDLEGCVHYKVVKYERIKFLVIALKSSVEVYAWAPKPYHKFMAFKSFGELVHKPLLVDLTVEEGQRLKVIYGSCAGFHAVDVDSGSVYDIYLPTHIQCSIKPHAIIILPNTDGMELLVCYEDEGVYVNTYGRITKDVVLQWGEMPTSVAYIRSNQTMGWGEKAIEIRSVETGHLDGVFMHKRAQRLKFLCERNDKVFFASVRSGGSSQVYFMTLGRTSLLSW

`CN1CCN(Cc2ccc(-c3cnc4[nH]cc(-c5ccc6[nH]ccc6c5)c4c3)cc2)CC1` [Compound 1, 3-(1H-Indol-5-yl)-5-(4-((4-methylpiperazin-1-yl)methyl)phenyl)-1H-pyrrolo[2,3-b]pyridine, reference compound]: the half-life in series [1] lay within 2 to 3 h. Moreover, the “motor neuron survival restored, % of vehicle controls (maximum)” value in series [2] is 90%. For the same compound, the “solubility after adding 2-hydroxypropyl-β-cyclodextrin to the vehicle” value in series [3] (11% 2-hydroxypropyl-β-cyclodextrin) is on record as “fully solubilize”. Moreover, the “solubility in cell culture media” value in series [3] (formulation 55% saline, 40% PEG-400, 5% DMSO) was “highly insoluble”. The compound further displayed a cellular potency in series [4] of over 100 nM. Moreover, in series [4] (33 μM CPA), the “concentrations showing protective effects” value is at least 100 nM. In addition, in [4] (33 μM CPA, 0.01 μM-3 μM), the “concentration that completely reversed CPA-induced neurodegeneration” value amounted to 1 µM. Also, the “HGK enzyme activity remaining” value at HGK/MAP4K4 (1 μM treatment) is reported as 0.54%. For the same compound, the “inhibition of HGK activity in a cell-free assay” value on HGK/MAP4K4 (1 μM, Goodfellow et al. 2013) is over 99%. In series [5], the “JNK phosphorylation in CPA-treated motor neurons” value is given as “strongly attenuated; also recorded: significantly decreased JNK phosphorylation”, the “MKK4 phosphorylation in CPA-treated MNs” value is recorded as “strongly attenuated”, the “c-Jun phosphorylation in CPA-treated motor neurons” value was “strongly suppressed; also recorded: below the threshold of detection” and the “caspase 3 cleavage in CPA-treated MNs” value is listed as “strongly suppressed”.

On to `OCCN1CCN(Cc2ccc(-c3cnc4[nH]cc(-c5cccc(Cl)c5)c4c3)cc2)CC1` [Compound 12k, 2-(4-(4-(3-(3-Chlorophenyl)-1H-pyrrolo[2,3-b]pyridin-5-yl)benzyl)piperazin-1-yl)ethan-1-ol], for which, in the series on phospho-cjun, the “oral bioavailability (from reduction of cjun phosphorylation after oral gavage)” value was “orally bioavailable”. Also, the “body mass vs vehicle-treated controls” value in series [6] is reported as “mild increase in body mass”. In series [6], the “survival, hindlimb strength, gross pathology” value is “No differences in survival, hindlimb strength, or gross pathology”. In addition, the “% Enzyme Activity (relative to DMSO controls)” value in series [7] (LYN B) was determined as 89.48%; in series [7] (PKCb2), 89.45%; in series [7] (PKG1b), 101.46%. Also, the “intensity of a high molecular weight phosphoprotein band in brain vs vehicle or compound 1” value in series [8] is given as “consistently decreased the intensity of a high molecular weight band”.

The record behind these values is patent US12227500B2, “Substituted pyrrolo[2,3-b]pyridines for suppressing toxic endoplasmic reticulum stress” (THE TRUSTEES OF COLUMBIA UNIVERSITY IN THE CITY OF NEW YORK, priority 2018, dated 2025).
